The text below walks through data of patent US9108944B2, “Androgen receptor modulators and uses thereof” (ARAGON PHARMACEUTICALS, INC., priority 2010, dated 2015).

The assay deals with T1, AR-VP16 (Homo sapiens, UniProt P10275).
T1 sequence (P10275 560-920 limits assumed): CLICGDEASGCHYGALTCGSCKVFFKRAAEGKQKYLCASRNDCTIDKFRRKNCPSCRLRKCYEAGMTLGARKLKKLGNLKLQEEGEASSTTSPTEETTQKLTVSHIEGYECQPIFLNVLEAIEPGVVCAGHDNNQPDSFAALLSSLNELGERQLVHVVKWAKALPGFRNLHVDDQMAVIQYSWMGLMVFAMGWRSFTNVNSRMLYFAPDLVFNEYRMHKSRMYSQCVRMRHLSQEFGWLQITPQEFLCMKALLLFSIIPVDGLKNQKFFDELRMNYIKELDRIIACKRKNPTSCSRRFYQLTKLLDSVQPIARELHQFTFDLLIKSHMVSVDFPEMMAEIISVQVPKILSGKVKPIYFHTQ
As to the kind of experiment: AR-VP16 DNA Binding Assay, antagonist mode (HepG2 cells, 0.1 nM R1881). Type of assay: cell-based. The procedure:
Cells were transiently transfected using Lipofectin (Life Technologies) according to the manufacturer's protocol. […] Transfected cells were incubated overnight then treated with ligand. […] For antagonist assays, the compounds were serially diluted and 50 μL of compound with RPMI supplemented with charcoal stripped serum plus methyltrienolone (R1881) were added to the cells. The final R1881 concentration used in the antagonist assays was 0.1 nM. Following 48 hour incubation the medium was removed and the cells were lysed in 40 μL of lysis buffer (25 mM Tris Phosphate, 2 mM CDTA, 10% Glycerol, 0.5% Triton X-100, 2 mM DTT).
The IC50 is the concentration needed to halve the response being measured. The molecule `N#Cc1ncc(N2C(=O)C3(CCC3)N(c3ccc(OCc4cccnc4)c(F)c3)C2=S)cc1C(F)(F)F` [Compound 148, 5-(5-(3-Fluoro-4-(pyridin-3-ylmethoxy)phenyl)-8-oxo-6-thioxo-5,7-diazaspiro[3.4]octan-7-yl)-3-(trifluoromethyl)picolinonitrile] came in with an IC50 of under 1000 nM.
With `N#Cc1ncc(N2C(=O)C3(CCC3)N(c3ccc(OCc4ccncc4)c(F)c3)C2=S)cc1C(F)(F)F` [Compound 156, 5-(5-(3-Fluoro-4-(pyridin-4-ylmethoxy)phenyl)-8-oxo-6-thioxo-5,7-diazaspiro[3.4]octan-7-yl)-3-(trifluoromethyl)picolinonitrile], the IC50 was under 1000 nM.
Under `CN1CCN(CCCOc2ccc(N3C(=S)N(c4cnc(C#N)c(C(F)(F)F)c4)C(=O)C34CCC4)cc2F)CC1` [Compound 157, 5-(5-(3-Fluoro-4-(3-(4-methylpiperazin-1-yl)propoxy)phenyl)-8-oxo-6-thioxo-5,7-diazaspiro[3.4]octan-7-yl)-3-(trifluoromethyl)picolinonitrile] stands under 1000 nM.
The result for `COCCOc1ccc(N2C(=S)N(c3ccc(C#N)c4ncccc34)C(=O)C23CCC3)cc1F` [Compound 171, 5-(5-(3-Fluoro-4-(2-methoxyethoxy)phenyl)-8-oxo-6-thioxo-5,7-diazaspiro[3.4]octan-7-yl)quinoline-8-carbonitrile] reads under 1000 nM.
The result for `N#Cc1ccc(N2C(=O)C3(CCC3)N(c3ccc(OCCc4ccccn4)c(F)c3)C2=S)c2cccnc12` [Compound 172, 5-(5-(3-Fluoro-4-(2-(pyridin-2-yl)ethoxy)phenyl)-8-oxo-6-thioxo-5,7-diazaspiro[3.4]octan-7-yl)quinoline-8-carbonitrile] reads under 1000 nM.
`CN1CCN(CCOc2ccc(N3C(=S)N(c4ccc(C#N)c5ncccc45)C(=O)C34CCC4)cc2F)CC1` [Compound 173, 5-(5-(3-Fluoro-4-(2-(4-methylpiperazin-1-yl)ethoxy)phenyl)-8-oxo-6-thioxo-5,7-diazaspiro[3.4]octan-7-yl)quinoline-8-carbonitrile] had an IC50 of under 1000 nM.
The result for `N#Cc1ncc(N2C(=O)C3(CCC3)N(c3ccc(OCCN4CCNCC4)c(F)c3)C2=S)cc1C(F)(F)F` [Compound 174, 5-(5-(3-fluoro-4-(2-(piperazin-1-yl)ethoxy)phenyl)-8-oxo-6-thioxo-5,7-diazaspiro[3.4]octan-7-yl)-3-(trifluoromethyl)picolinonitrile] reads under 1000 nM; that for `N#Cc1ncc(N2C(=O)C3(CCC3)N(c3ccc(OCCc4cnccn4)c(F)c3)C2=S)cc1C(F)(F)F` [Compound 176, 5-(5-(3-Fluoro-4-(2-(pyrazin-2-yl)ethoxy)phenyl)-8-oxo-6-thioxo-5,7-diazaspiro[3.4]octan-7-yl)-3-(trifluoromethyl)picolinonitrile], under 1000 nM; that for `N#Cc1ncc(N2C(=O)C3(CCC3)N(c3ccc(OCCN4CCCCC4)c(F)c3)C2=S)cc1C(F)(F)F` [Compound 177, 5-(5-(3-Fluoro-4-(2-(piperidin-1-yl)ethoxy)phenyl)-8-oxo-6-thioxo-5,7-diazaspiro[3.4]octan-7-yl)-3-(trifluoromethyl)picolinonitrile], under 1000 nM.
Under `N#Cc1ncc(N2C(=O)C3(CCC3)N(c3ccc(OCCC4CCCCC4)c(F)c3)C2=S)cc1C(F)(F)F` [Compound 179, 5-(5-(4-(2-Cyclohexylethoxy)-3-fluorophenyl)-8-oxo-6-thioxo-5,7-diazaspiro[3.4]octan-7-yl)-3-(trifluoromethyl)picolinonitrile] stands under 1000 nM; under `COCCOc1ccc(N2C(=S)N(c3cnc(C#N)c(C(F)(F)F)c3)C(=O)C23CCC3)c(F)c1` [Compound 181, 5-(5-(2-Fluoro-4-(2-methoxyethoxy)phenyl)-8-oxo-6-thioxo-5,7-diazaspiro[3.4]octan-7-yl)-3-(trifluoromethyl)picolinonitrile], under 1000 nM.
The molecule `CN1CCN(CCOc2ccc(N3C(=S)N(c4cnc(C#N)c(C(F)(F)F)c4)C(=O)C34CCC4)c(F)c2)CC1` [Compound 182, 5-(5-(2-Fluoro-4-(2-(4-methylpiperazin-1-yl)ethoxy)phenyl)-8-oxo-6-thioxo-5,7-diazaspiro[3.4]octan-7-yl)-3-(trifluoromethyl)picolinonitrile] gave an IC50 of under 1000 nM.
Under `N#Cc1ncc(N2C(=O)C3(CCC3)N(c3ccc(OCCc4ccccn4)cc3F)C2=S)cc1C(F)(F)F` [Compound 183, 5-(5-(2-Fluoro-4-(2-(pyridin-2-yl)ethoxy)phenyl)-8-oxo-6-thioxo-5,7-diazaspiro[3.4]octan-7-yl)-3-(trifluoromethyl)picolinonitrile] stands under 1000 nM; under `N#Cc1ncc(N2C(=O)C3(CCC3)N(c3ccc(OCCCN4CCCC4)c(F)c3)C2=S)cc1C(F)(F)F` [Compound 185, 5-(5-(3-Fluoro-4-(3-(pyrrolidin-1-yl)propoxy)phenyl)-8-oxo-6-thioxo-5,7-diazaspiro[3.4]octan-7-yl)-3-(trifluoromethyl)picolinonitrile], under 1000 nM.
The result for `CN1CCC(Oc2ccc(N3C(=S)N(c4cnc(C#N)c(C(F)(F)F)c4)C(=O)C34CCC4)cc2F)CC1` [Compound 193, 5-(5-(3-Fluoro-4-((1-methylpiperidin-4-yl)oxy)phenyl)-8-oxo-6-thioxo-5,7-diazaspiro[3.4]octan-7-yl)-3-(trifluoromethyl)picolinonitrile] reads under 1000 nM; that for `Cc1cc(N2C(=O)C3(CCC3)N(c3ccc(OC4CCOCC4)cc3)C2=S)cnc1C#N` [Compound 194, 3-Methyl-5-(8-oxo-5-(4-((tetrahydro-2H-pyran-4-yl)oxy)phenyl)-6-thioxo-5,7-diazaspiro[3.4]octan-7-yl)picolinonitrile], under 1000 nM.
Under `CN1CCC(Oc2ccc(N3C(=S)N(c4cnc(C#N)c(C(F)(F)F)c4)C(=O)C3(C)C)cc2)CC1` [Compound 196, 5-(4,4-Dimethyl-3-(4-((1-methylpiperidin-4-yl)oxy)phenyl)-5-oxo-2-thioxoimidazolidin-1-yl)-3-(trifluoromethyl)picolinonitrile] stands under 1000 nM; under `Cc1cc(N2C(=O)C3(CCC3)N(c3ccc(OCCN4CCN(CC(F)(F)F)CC4)cc3)C2=S)cnc1C#N` [Compound 199, 3-Methyl-5-(8-oxo-6-thioxo-5-(4-(2-(4-(2,2,2-trifluoroethyl)piperazin-1-yl)ethoxy)phenyl)-5,7-diazaspiro[3.4]octan-7-yl)picolinonitrile], under 1000 nM.
`CC(=O)N1CCN(CCOc2ccc(N3C(=S)N(c4cnc(C#N)c(C(F)(F)F)c4)C(=O)C34CCC4)cc2F)CC1` [Compound 202, 5-(5-(4-(2-(4-Acetylpiperazin-1-yl)ethoxy)-3-fluorophenyl)-8-oxo-6-thioxo-5,7-diazaspiro[3.4]octan-7-yl)-3-(trifluoromethyl)picolinonitrile] had an IC50 of under 1000 nM.
The result for `COc1ccc(N2C(=S)N(c3cnc(C#N)c(C(F)(F)F)c3)C(=O)C23CCC3)cc1` [Compound 204, 5-(5-(4-Methoxyphenyl)-8-oxo-6-thioxo-5,7-diazaspiro[3.4]octan-7-yl)-3-(trifluoromethyl)picolinonitrile] reads under 1000 nM; that for `N#Cc1ncc(N2C(=O)C3(CCC3)N(c3ccc(Oc4ncccn4)cc3)C2=S)cc1C(F)(F)F` [Compound 206, 5-(8-Oxo-5-(4-(pyrimidin-2-yloxy)phenyl)-6-thioxo-5,7-diazaspiro[3.4]octan-7-yl)-3-(trifluoromethyl)picolinonitrile], under 1000 nM; that for `N#Cc1ncc(N2C(=O)C3(CCC3)N(c3ccc(Oc4ccncn4)cc3)C2=S)cc1C(F)(F)F` [Compound 208, 5-(8-Oxo-5-(4-(pyrimidin-4-yloxy)phenyl)-6-thioxo-5,7-diazaspiro[3.4]octan-7-yl)-3-(trifluoromethyl)picolinonitrile], under 1000 nM.
The result for `Cc1cc(N2C(=O)C3(CCC3)N(c3ccc(Oc4ccncn4)cc3)C2=S)cnc1C#N` [Compound 209, 3-Methyl-5-(8-oxo-5-(4-(pyrimidin-4-yloxy)phenyl)-6-thioxo-5,7-diazaspiro[3.4]octan-7-yl)picolinonitrile] reads under 1000 nM; that for `N#Cc1ncc(N2C(=O)C3(CCC3)N(c3ccc(OC4CCN(CCO)CC4)cc3)C2=S)cc1C(F)(F)F` [Compound 218, 5-(5-(4-((1-(2-hydroxyethyl)piperidin-4-yl)oxy)phenyl)-8-oxo-6-thioxo-5,7-diazaspiro[3.4]octan-7-yl)-3-(trifluoromethyl)picolinonitrile], under 1000 nM; that for `CNC(=O)CCCc1ccc(N2C(=S)N(c3cnc(C#N)c(C(F)(F)F)c3)C(=O)C23CCC3)cc1` [Compound 230, 4-(4-(7-(6-Cyano-5-(trifluoromethyl)pyridin-3-yl)-8-oxo-6-thioxo-5,7-diazaspiro[3.4]octan-5-yl)phenyl)-N-methylbutanamide], under 1000 nM.
Take `N#Cc1ncc(N2C(=O)C3(CCC3)N(c3ccc(C(=O)NCc4ccccc4)c(F)c3)C2=S)cc1C(F)(F)F` [Compound 235, N-Benzyl-4-(7-(6-cyano-5-(trifluoromethyl)pyridin-3-yl)-8-oxo-6-thioxo-5,7-diazaspiro[3.4]octan-5-yl)-2-fluorobenzamide]: the IC50 is under 1000 nM.
